# Tested on: EJ-1 human bladder carcinoma
# Assay: not given
# Conditions: 100 mg/kg, xenograft in nude mice; cited from earlier work
row,Compound,inhibition of tumor growth
1,COC(=O)[C@H](CCSC)NC(=O)[C@H](/C=C\[C@@H](/C=C/[C@@H](N)CS)C(C)C)Cc1ccccc1 [Compound B1086],inhibit tumor growth

# Tested on: mammary and salivary carcinomas
# Assay: not given
# Conditions: daily administration, ras transgenic mice; cited from earlier work
row,Compound,tumor regression
1,"CC[C@H](C)[C@@H](CO[C@@H](Cc1ccccc1)C(=O)N[C@@H](CCS(C)(=O)=O)C(=O)OC(C)C)NC[C@@H](N)CS [L-744,832]",tumor regression

# Tested on: not given
# Assay: not given
# Conditions: not given
row,melting point [°C],Compound
1,185 to 188,"Nc1nccn1CC(Oc1ccc2c(c1CCc1ccccc1)CCCC2=O)c1ccccc1 (stereo not shown) [Compound 63r, 6-[2-(2-Amino-imidazol-1-yl)-1-phenyl-ethoxy]-5-phenethyl-3,4-dihydro-2H-naphthalen-1-one]"

# Tested on: HT1080 human fibrosarcoma
# Assay: not given
# Conditions: 100 mg/kg, xenograft in nude mice; cited from earlier work
row,Compound,inhibition of tumor growth
1,COC(=O)[C@H](CCSC)NC(=O)[C@H](/C=C\[C@@H](/C=C/[C@@H](N)CS)C(C)C)Cc1ccccc1 [Compound B1086],inhibit tumor growth

# Target: T1, SF9 affinity purified rat FPT (Rattus norvegicus, UniProt Q02293+Q04631)
# T1 construct: made in house; host or cells: Sf9 insect cells
# Assay: PFT (FPT) inhibitory activity assay, radiolabeled farnesyl pyrophosphate and biotinyl peptide, streptavidin beads
# Type: biochemical
# Conditions: HEPES buffer pH 7.4, 30° C., 30 minutes; read-out: FTase IC50
# How it was run: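 Rat FPT expressed in SF9 cells was incubated 30 minutes at 30° C. with compound (in 10% DMSO), radiolabeled farnesyl pyrophosphate and biotinylated peptide. Buffer: HEPES pH 7.4, ZnCl2 20 μM, MgCl2 and DTT 5 mM each, 0.1% PEG 8000, 5 mM potassium phosphate (also run without phosphate). Product captured on streptavidin beads in magnesium acetate/H3PO4 stop buffer.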
row,IC50 [nM],Compound
1,35,"Nc1nccn1CC(Oc1ccc2c(c1CCc1ccccc1)CCCC2=O)c1ccccc1 (stereo not shown) [Compound 63r, 6-[2-(2-Amino-imidazol-1-yl)-1-phenyl-ethoxy]-5-phenethyl-3,4-dihydro-2H-naphthalen-1-one]"
2,0.2,"CC[C@H](CO)NC(=O)c1cccc(SCc2c(O[C@H](Cn3ccnc3)c3ccccc3)ccc3c2CCCC3=O)c1 [Compound 246, N-[(1R)-1-(Hydroxymethyl)propyl]-3-{[(2-{[(1S)-2-(1H-imidazol-1-yl)-1-phenylethyl]oxy}-5-oxo-5,6,7,8-tetrahydro-1-naphthalenyl)methyl]sulfanyl}benzamide]"
3,0.2,"CC[C@H](C)CNC(=O)c1ccc(S(=O)(=O)Cc2c(O[C@H](Cn3ccnc3)c3ccccc3)ccc3c2CCCC3=O)cc1 [Compound 247, 4-{[(2-{[(1S)-2-(1H-Imidazol-1-yl)-1-phenylethyl]oxy}-5-oxo-5,6,7,8-tetrahydro-1-naphthalenyl)methyl]sulfonyl}-N-[(2S)-2-methylbutyl]benzamide]"
4,0.2,CC[C@H](C)CNC(=O)c1cccc(S(=O)(=O)Cc2c(O[C@H](Cn3ccnc3)c3ccccc3)ccc3c2CCCC3=O)c1 [Compound 248]
5,0.25,CC[C@H](C)CNC(=O)c1ccccc1S(=O)(=O)Cc1c(O[C@H](Cn2ccnc2)c2ccccc2)ccc2c1CCCC2=O [Compound 249]
6,0.2,"CC[C@H](C)CNC(=O)c1ccccc1SCc1c(O[C@H](Cn2ccnc2)c2ccccc2)ccc2c1CCCC2=O [Compound 250, 2-{[(2-{[(1S)-2-(1H-Imidazol-1-yl)-1-phenylethyl]oxy}-5-oxo-5,6,7,8-tetrahydro-1-naphthalenyl)methyl]sulfanyl}-N-[(2S)-2-1-methylbutyl]benzamide]"
7,0.2,"CC[C@H](C)CNC(=O)c1ccc(SCc2c(O[C@H](Cn3ccnc3)c3ccccc3)ccc3c2CCCC3=O)cc1 [Compound 251, 4-{[(2-{[(1S)-2-(1H-Imidazol-1-yl)-1-phenylethyl]oxy}-5-oxo-5,6,7,8-tetrahydro-1-naphthalenyl)methyl]sulfanyl}-N-[(2S)-2-methylbutyl]benzamide]"
8,0.2,"CC[C@H](C)CNC(=O)c1cccc(SCc2c(O[C@H](Cn3ccnc3)c3ccccc3)ccc3c2CCCC3=O)c1 [Compound 252, 3-{[(2-{[(1S)-2-(1H-Imidazol-1-yl)-1-phenylethyl]oxy}-5-oxo-5,6,7,8-tetrahydro-1-naphthalenyl)methyl]sulfanyl}-N-[(2S)-2-methylbutyl]benzamide]"
9,0.7,"CC(O)CNC(=O)c1ccc(S(=O)(=O)Cc2c(O[C@H](Cn3ccnc3)c3ccccc3)ccc3c2CCCC3=O)cc1 (stereo partly drawn) [Compound 253, N-(2-Hydroxypropyl)-4-{[(2-{[(1S)-2-(1H-imidazol-1-yl)-1-phenylethyl]oxy}-5-oxo-5,6,7,8-tetrahydro-1-naphthalenyl)methyl]sulfonyl}benzamide]"
10,1,"CC(O)CNC(=O)c1cccc(S(=O)(=O)Cc2c(O[C@H](Cn3ccnc3)c3ccccc3)ccc3c2CCCC3=O)c1 (stereo partly drawn) [Compound 254, N-(2-Hydroxypropyl)-3-{[(2-{[(1S)-2-(1H-imidazol-1-yl)-1-phenylethyl]oxy}-5-oxo-5,6,7,8-tetrahydro-1-naphthalenyl)methyl]sulfonyl}benzamide]"
11,0.2,CC(O)CNC(=O)c1ccccc1S(=O)(=O)Cc1c(O[C@H](Cn2ccnc2)c2ccccc2)ccc2c1CCCC2=O (stereo partly shown) [Compound 255]
12,0.2,"CC(O)CNC(=O)c1ccc(SCc2c(O[C@H](Cn3ccnc3)c3ccccc3)ccc3c2CCCC3=O)cc1 (stereo partly drawn) [Compound 256, N-(2-Hydroxypropyl)-4-{[(2-{[(1S)-2-(1H-imidazol-1-yl)-1-phenylethyl]oxy}-5-oxo-5,6,7,8-tetrahydro-1-naphthalenyl)methyl]sulfanyl}benzamide]"
13,0.2,"CC(O)CNC(=O)c1ccccc1SCc1c(O[C@H](Cn2ccnc2)c2ccccc2)ccc2c1CCCC2=O (stereo partly drawn) [Compound 257, N-(2-Hydroxypropyl)-2-{[(2-{[(1S)-2-(1H-imidazol-1-yl)-1-phenylethyl]oxy}-5-oxo-5,6,7,8-tetrahydro-1-naphthalenyl)methyl]sulfanyl}benzamide]"
14,0.2,"CC(O)CNC(=O)c1cccc(SCc2c(O[C@H](Cn3ccnc3)c3ccccc3)ccc3c2CCCC3=O)c1 (stereo partly drawn) [Compound 258, N-(2-Hydroxypropyl)-3-{[(2-{[(1S)-2-(1H-imidazol-1-yl)-1-phenylethyl]oxy}-5-oxo-5,6,7,8-tetrahydro-1-naphthalenyl)methyl]sulfanyl}benzamide]"
15,0.2,"COCCNC(=O)c1cccc(SCc2c(O[C@H](Cn3ccnc3)c3ccccc3)ccc3c2CCCC3=O)c1 [Compound 259, 3-{[(2-{[(1S)-2-(1H-Imidazol-1-yl)-1-phenylethyl]oxy}-5-oxo-5,6,7,8-tetrahydro-1-naphthalenyl)methyl]sulfanyl}-N-(2-methoxyethyl)benzamide]"
16,0.2,"COCCNC(=O)c1ccccc1SCc1c(O[C@H](Cn2ccnc2)c2ccccc2)ccc2c1CCCC2=O [Compound 260, 2-{[(2-{[(1S)-2-(1H-Imidazol-1-yl)-1-phenylethyl]oxy}-5-oxo-5,6,7,8-tetrahydro-1-naphthalenyl)methyl]sulfanyl}-N-(2-methoxyethyl)benzamide]"
17,0.2,COCCNC(=O)c1ccc(SCc2c(O[C@H](Cn3ccnc3)c3ccccc3)ccc3c2CCCC3=O)cc1 [Compound 261]
18,0.2,"COCCNC(=O)c1cccc(S(=O)(=O)Cc2c(O[C@H](Cn3ccnc3)c3ccccc3)ccc3c2CCCC3=O)c1 [Compound 263, 3-{[(2-{[(1S)-2-(1H-Inimidazol-1-yl)-1-phenylethyl]oxy}-5-oxo-5,6,7,8-tetrahydro-1-naphthalenyl)methyl]sulfonyl}-N-(2-methoxyethyl)benzamide]"
19,0.2,"COCCNC(=O)c1ccccc1S(=O)(=O)Cc1c(O[C@H](Cn2ccnc2)c2ccccc2)ccc2c1CCCC2=O [Compound 264, 2-{[(2-{[(1S)-2-(1H-Imidazol-1-yl)-1-phenylethyl]oxy}-5-oxo-5,6,7,8-tetrahydro-1-naphthalenyl)-methyl]sulfonyl}-N-(2-methoxyethyl)benzamide]"

# Tested on: human lung carcinoma with K-ras mutation and p53 deletion
# Assay: not given
# Conditions: nude mice; cited from earlier work
row,Compound,block of tumor growth
1,CSCC[C@H](NC(=O)c1ccc(NC[C@@H](N)CS)cc1-c1ccccc1)C(=O)O [FTI276],selectively block tumor growth

# Tested on: human colon carcinoma xenografts
# Assay: not given
# Conditions: 100 mg/kg, xenograft in nude mice; cited from earlier work
row,Compound,inhibition of tumor growth
1,COC(=O)[C@H](CCSC)NC(=O)[C@H](/C=C\[C@@H](/C=C/[C@@H](N)CS)C(C)C)Cc1ccccc1 [Compound B1086],inhibit tumor growth
